Experimental data reported in PMC5931107, “Clinical pharmacodynamic/exposure characterisation of the multikinase inhibitor ilorasertib (ABT-348) in a phase 1 dose-escalation trial” (British Journal of Cancer, 2018).
Where two headings read alike, the source gives them in different places.

Test: Plasma pharmacokinetics, Arm II (oral BID), phase 1 trial
Assay type: in vivo, human
Settings: for half-life: read-out: t1/2 (harmonic mean) (converted); for Cmax: read-out: Cmax
Experimental: Pharmacokinetics of ilorasertib were evaluated in the dose-escalation cohort on blood samples that were collected on cycle 1 days 1 and 15. Parameters determined: Cmax, time to Cmax (Tmax), terminal phase elimination half-life (t1/2), clearance, apparent oral clearance (CL/F), and area under the plasma concentration-time curve from time 0 to time of last measurable concentration (AUCt) and from time 0 to infinity (AUC∞). For Arm I, blood samples were collected prior to dosing and at 0.5, 1, 2, 3, 4, 6, 8, 10 or 12, and 24 h after dosing on cycle 1 days 1 and 15; of note, for institutions not able to collect the 10- or 12-h post-dose sample, the 24-h sample was replaced with 22-h and 28-h post-dose samples. In Arm II, for the first dose, blood samples were collected pre-dose and at 1, 2, 3, and 4 h post-dose on cycle 1 days 1 and 15; for the second dose, samples were collected pre-dose and at 1, 2, 3, 4, 18, and 24 h after second dose on cycle 1 days 1 and 15. In Arm III, blood samples were collected prior to infusion, at 1 h 55 min (just before end of infusion), and at 0.5, 1, 2, 4, 6, 8, 10, and 24 h after end of infusion on cycle 1 days 1 and 15; here also, for institutions not able to collect the 8-h or 10-h after-end-of-infusion samples, the 24-h sample was replaced with 22-h and 28-h post-dose samples. The liquid chromatography (LC)-mass spectrometry (MS)/MS method was developed and validated in the Bioanalysis Department of AbbVie. Fifty microliter of human plasma (K2EDTA as anticoagulant) was fortified with 300 μL of deuterium-stable labelled internal standard and mixed well. A HybridSPE precipitation plate (50 mg/96 wells, Supelco Analytical, Munich, Germany) was used to directly load and elute (under slight vacuum) the fortified samples into a clean collection plate. Samples were dried before reconstitution with 100 μL of 20/80 (v/v) acetonitrile/water, and injected for LC-MS/MS analysis. A Halo C8 (Wilmington, DE, USA; 2.7 μm, 2.1 × 30 mm) was used on an Agilent 1290 Infinity UPLC pump (Agilent Technologies, Santa Clara, CA) to carry out the separation. An isocratic condition with 25/75/0.1 (v/v/v) acetonitrile/water/98% formic acid was used as the mobile phase. The flow rate was set to be 0.6 mL/min. An MPS 3 C ([…] Ruhr, Germany) autosampler was used to introduce samples onto the UPLC system. An API 4000 mass spectrometer (Applied Biosystems, Foster City, CA) was used in the multiple reactions monitoring mode for the detection and quantitation of analyte. Descriptive statistics were used for demographic variables. The numbers and percentages of patients with treatment-emergent AEs (TEAEs) were tabulated using the Medical Dictionary for Regulatory Activities version 16.0 system organ class and preferred term, and further classified according to CTCAE version 4.0 criteria. The safety data set included all patients who received one or more doses of ilorasertib. The pharmacokinetic data set included all patients who received one or more doses of ilorasertib and had one or more pharmacokinetic samples. Values for pharmacokinetic parameters were determined using non-compartmental methods, with data analysed separately for each arm. A repeated measures analysis was performed for Tmax and dose-normalised Cmax, AUCt, and AUC∞. The model included random effects for patient and fixed effects for dose level, day, and the interaction of dose level and day. To assess effects of exposure on pharmacodynamic biomarkers, Cmax was employed as the directly measured marker of exposure for the rapid changes in DBP and PlGF pre-steady-state, while AUC∞ reflected exposure variability at the time of post-multiple-dose skin biopsy. Descriptive statistics were used to summarise ECOG performance status. The efficacy data set included all patients who received one or more doses of ilorasertib.

[1] = human, plasma, po, 40 mg, Arm II PO BID 40 mg, day 1, N=2, mean (individual)
[2] = human, plasma, po, 40 mg, Arm II PO BID 40 mg, day 1, N=3
[3] = human, plasma, po, 40 mg, Arm II PO BID 40 mg, day 15, N=3
[4] = human, plasma, po, 60 mg, Arm II PO BID 60 mg, day 1, N=3
[5] = human, plasma, po, 60 mg, Arm II PO BID 60 mg, day 15, N=1
[6] = human, plasma, po, 60 mg, Arm II PO BID 60 mg, day 15, N=3
[7] = human, plasma, po, 90 mg, Arm II PO BID 90 mg, day 1, N=2, mean (individual)
[8] = human, plasma, po, 90 mg, Arm II PO BID 90 mg, day 15, N=3
[9] = human, plasma, po, 130 mg, Arm II PO BID 130 mg, day 1, N=3
[10] = human, plasma, po, 130 mg, Arm II PO BID 130 mg, day 1, N=4
[11] = human, plasma, po, 130 mg, Arm II PO BID 130 mg, day 15, N=1
[12] = human, plasma, po, 130 mg, Arm II PO BID 130 mg, day 15, N=3
[13] = human, plasma, po, 190 mg, Arm II PO BID 190 mg, day 15, N=2, mean (individual)
[14] = human, plasma, po, 190 mg, Arm II PO BID 190 mg, day 15, N=5
[15] = human, plasma, po, 230 mg, Arm II PO BID 230 mg, day 1, N=2, mean (individual)
[16] = human, plasma, po, 230 mg, Arm II PO BID 230 mg, day 1, N=3
[17] = human, plasma, po, 230 mg, Arm II PO BID 230 mg, day 15, N=1
[18] = human, plasma, po, 230 mg, Arm II PO BID 230 mg, day 15, N=4
[19] = human, plasma, po, 340 mg, Arm II PO BID 340 mg, day 1, N=1
[20] = human, plasma, po, 340 mg, Arm II PO BID 340 mg, day 1, N=3
[21] = human, plasma, po, 340 mg, Arm II PO BID 340 mg, day 15, N=1

Question: For `Nc1ncc(-c2cnn(CCO)c2)c2scc(-c3ccc(NC(=O)Nc4cccc(F)c4)cc3)c12` [ilorasertib, Ilorasertib], which Tmax (Arm II, oral administration in two divided doses, versus Arm I) is on record?
Answer: delayed by several hours

Question: And the AUC(0-inf) [1]?
Answer: 3990 ng·h/mL

Question: And the half-life [1]?
Answer: 11 h

Question: What about the AUC(0-t) [2] of the same compound?
Answer: 3720 ± 1640 ng·h/mL

Question: What about the Cmax [2] of the same compound?
Answer: 250 ± 120 ng/mL

Question: What about the Tmax (human, plasma, po, 40 mg, Arm II PO BID 40 mg, day 1, N=3, read-out: Tmax) of the same compound?
Answer: 7.3 ± 3.8 h

Question: And the AUC(0-t) [3]?
Answer: 3750 ± 2050 ng·h/mL

Question: And the Cmax [3]?
Answer: 190 ± 110 ng/mL

Question: What about the Tmax (human, plasma, po, 40 mg, Arm II PO BID 40 mg, day 15, N=3, read-out: Tmax) of the same compound?
Answer: 10 h

Question: And the AUC(0-t) [4]?
Answer: 5450 ± 1460 ng·h/mL

Question: And the Cmax [4]?
Answer: 380 ± 140 ng/mL

Question: What about the Tmax (human, plasma, po, 60 mg, Arm II PO BID 60 mg, day 1, N=3, read-out: Tmax) of the same compound?
Answer: 5.7 ± 3.8 h

Question: And the AUC(0-inf) [5]?
Answer: 5430 ng·h/mL

Question: What about the half-life [5] of the same compound?
Answer: 11.8 h

Question: What about the AUC(0-t) [6] of the same compound?
Answer: 2920 ± 710 ng·h/mL

Question: What about the Cmax [6] of the same compound?
Answer: 230 ± 60 ng/mL

Question: And the Tmax (human, plasma, po, 60 mg, Arm II PO BID 60 mg, day 15, N=3, read-out: Tmax)?
Answer: 4.8 ± 2.8 h

Question: What about the AUC(0-inf) [7] of the same compound?
Answer: 4030 ng·h/mL

Question: What about the half-life [7] of the same compound?
Answer: 10.1 h

Question: What about the AUC(0-t) (human, plasma, po, 90 mg, Arm II PO BID 90 mg, day 1, N=3) of the same compound?
Answer: 3920 ± 1530 ng·h/mL

Question: And the Tmax (human, plasma, po, 90 mg, Arm II PO BID 90 mg, day 1, N=3, read-out: Tmax)?
Answer: 9 ± 1 h

Question: What about the AUC(0-inf) (human, plasma, po, 90 mg, Arm II PO BID 90 mg, day 15, N=2, mean (individual)) of the same compound?
Answer: 5330 ng·h/mL

Question: What about the AUC(0-t) [8] of the same compound?
Answer: 4060 ± 1510 ng·h/mL

Question: And the Cmax [8]?
Answer: 320 ± 100 ng/mL

Question: And the Tmax (human, plasma, po, 90 mg, Arm II PO BID 90 mg, day 15, N=3, read-out: Tmax)?
Answer: 7.6 ± 5.4 h

Question: What about the AUC(0-inf) [9] of the same compound?
Answer: 6530 ± 4460 ng·h/mL

Question: And the half-life [9]?
Answer: 18.6 ± 17.6 h

Question: What about the AUC(0-t) [10] of the same compound?
Answer: 5070 ± 3180 ng·h/mL

Question: What about the Cmax [10] of the same compound?
Answer: 600 ± 390 ng/mL

Question: And the Tmax (human, plasma, po, 130 mg, Arm II PO BID 130 mg, day 1, N=4, read-out: Tmax)?
Answer: 7.5 ± 1.7 h

Question: What about the AUC(0-inf) [11] of the same compound?
Answer: 3960 ng·h/mL

Question: And the half-life [11]?
Answer: 7.5 h

Question: And the AUC(0-t) [12]?
Answer: 2400 ± 1290 ng·h/mL

Question: And the Cmax [12]?
Answer: 260 ± 280 ng/mL

Question: What about the Tmax (human, plasma, po, 130 mg, Arm II PO BID 130 mg, day 15, N=3, read-out: Tmax) of the same compound?
Answer: 11 ± 11.5 h

Question: What about the AUC(0-inf) (human, plasma, po, 190 mg, Arm II PO BID 190 mg, day 1, N=4) of the same compound?
Answer: 17800 ± 11300 ng·h/mL

Question: And the Cmax (human, plasma, po, 190 mg, Arm II PO BID 190 mg, day 1, N=7)?
Answer: 540 ± 280 ng/mL

Question: What about the Tmax (human, plasma, po, 190 mg, Arm II PO BID 190 mg, day 1, N=7, read-out: Tmax) of the same compound?
Answer: 10.2 ± 6.7 h

Question: What about the AUC(0-inf) [13] of the same compound?
Answer: 10700 ng·h/mL

Question: What about the half-life [13] of the same compound?
Answer: 8.4 h

Question: And the AUC(0-t) [14]?
Answer: 6690 ± 5220 ng·h/mL

Question: What about the Cmax [14] of the same compound?
Answer: 630 ± 380 ng/mL

Question: What about the Tmax (human, plasma, po, 190 mg, Arm II PO BID 190 mg, day 15, N=5, read-out: Tmax) of the same compound?
Answer: 13.2 ± 10.2 h

Question: What about the AUC(0-inf) [15] of the same compound?
Answer: 9140 ng·h/mL

Question: And the half-life [15]?
Answer: 9 h

Question: What about the AUC(0-t) [16] of the same compound?
Answer: 10100 ± 3620 ng·h/mL

Question: And the Cmax [16]?
Answer: 700 ± 230 ng/mL

Question: And the Tmax (human, plasma, po, 230 mg, Arm II PO BID 230 mg, day 1, N=3, read-out: Tmax)?
Answer: 8.7 ± 1.2 h

Question: And the AUC(0-inf) [17]?
Answer: 13000 ng·h/mL

Question: And the half-life [17]?
Answer: 8 h

Question: What about the AUC(0-t) [18] of the same compound?
Answer: 11200 ± 4340 ng·h/mL

Question: What about the Cmax [18] of the same compound?
Answer: 790 ± 460 ng/mL

Question: And the Tmax (human, plasma, po, 230 mg, Arm II PO BID 230 mg, day 15, N=4, read-out: Tmax)?
Answer: 9.5 ± 0.6 h

Question: What about the AUC(0-inf) [19] of the same compound?
Answer: 98800 ng·h/mL

Question: What about the half-life [19] of the same compound?
Answer: 39.6 h

Question: And the AUC(0-t) [20]?
Answer: 39300 ± 14800 ng·h/mL

Question: And the Cmax [20]?
Answer: 2040 ± 870 ng/mL

Question: And the Tmax (human, plasma, po, 340 mg, Arm II PO BID 340 mg, day 1, N=3, read-out: Tmax)?
Answer: 15 ± 8 h

Question: What about the AUC(0-t) [21] of the same compound?
Answer: 15700 ng·h/mL

Question: What about the Cmax [21] of the same compound?
Answer: 770 ng/mL

Question: What about the Tmax (human, plasma, po, 340 mg, Arm II PO BID 340 mg, day 15, N=1, read-out: Tmax) of the same compound?
Answer: 10 h

Question: And the Tmax (human, plasma, po, Arm II PO BID all doses, day 1, N=26, read-out: Tmax)?
Answer: 9.2 ± 5 h

Question: What about the Tmax (human, plasma, po, Arm II PO BID all doses, day 15, N=22, read-out: Tmax) of the same compound?
Answer: 9.7 ± 6.6 h
